According to patent publication US20070265194A1, “Agents for the treatment of viral infections” (priority 2000, published 2007):
Peptide text beside a SMILES is read from it. * marks the point of attachment. Cbz = O=C(OCc1ccccc1)*

How the values were obtained:
HIV-1 protease = HIV-1 protease (Human immunodeficiency virus type 1 group M subtype B, UniProt P04585); experiment: In vitro Gag processing of recombinant Pr55 by recombinant HIV-1 protease, Western blot; assay type: biochemical; conditions: for inhibition of protease activity: 10-fold higher concentration than in the cell culture, 30 min reaction, FIG. 3 reactions 4-9; for inhibitory action on Gag processing by HIV-1 protease: inhibitor concentration of up to 100 microM, enzyme-to-substrate ratio 1:25
From the text: Therefore, a possible influence of proteasome inhibitors on the enzymic activity of the HIV-1 protease is investigated within the framework of the invention by studying the in vitro processing of Gag polyprotein (for this, see exemplary embodiment 4). For this purpose, according to the invention, recombinant Pr55 is expressed in insect cells and purified from released virus-like particles. Enzymatically active HIV-1 protease is expressed in E. coli and chromatographically purified. The specific activity of the protease is determined by means of titration of the active sites. Pr55 and protease are set to an enzyme-to-substrate ratio of 1:25 and incubated for a defined time under conditions under which only approx. 50% of the substrate Pr55 is proteolytically processed. These reaction conditions allow sensitive detection of small effects on the enzymic activity of the protease.
Recombinant HIV-1 Gag polyprotein Pr55 was prepared in insect cells and recombinant HIV-1 protease was prepared in E. coli. The experimental details of expression, purification and determination of the enzymic activity as well as carrying out the in vitro cleavage reactions and Western blots are illustrated in more detail in Example 6f. The enzyme-to-substrate ratios (protease-Pr55 ratio) were chosen in such a way that substrate conversion was relatively slow. After 30 min of reaction, approx. 50% of Pr55 had been cleaved. Under these conditions it is possible to determine even weakly inhibitory effects on the enzymic activity of the protease.
Myristylated Pr55 of HIV-1 was produced from virus-like particles which were released from insect cells infected with recombinant baculovirus Gag12myr. The virus-like particles were purified by centrifugation through a 20% sucrose layer. Recombinant HIV-1 protease expressed in E. coli was purified by means of gel filtration chromatography on Superose 12. The enzyme concentration was determined by means of active-site titration. For cleavage reactions, usually 1 μM Pr55 was incubated with 40 nM (nanomol) PR in reaction buffer (50 mM MES pH 6.5, 300 mM NaCl, 2 mM DTT, 1 mM EDTA, 0.1% Triton-X 100) at 37° C. for 30 min. In order to ensure maximum saturation of PR with inhibitors, PR was preincubated with the particular inhibitor for 5 min, prior to the start of the cleavage reactions. The cleavage reactions were stopped by adding SDS sample buffer and boiling the sample for 10 min. The cleavage products were fractionated in 10% SDS-PAGE and then detected by means of Western blot. For this purpose, anti-CA-specific antibodies were used which were detected by means of anti-rabbit IgG-peroxidase conjugate and chemiluminescence reaction.
Recombinant Pr55 was isolated from virus-like particles which had been produced by insect cells infected with recombinant bacculovirus. Recombinant HIV-1 protease was expressed in E. coli, purified, and the specific activity was determined by active-site titration. The quantities of Pr55 and protease were mixed with an enzyme-to-substrate ratio of 1:25 and incubated at 37° C. for 30 min. The reaction was stopped by adding SDS sample buffer. The cleavage reactions were then studied by Western blot analysis with CA-specific antiserum. Pr55, CA and intermediate processing product MA-Ca were made visible, after antibody binding, by means of a chemiluminescence reaction. […]

mouse thymus cell lines = conditions: cited from earlier work
DHBV = experiment: Primary and secondary DHBV infection in primary duck hepatocytes, core immunofluorescence; assay type: cell-based, duck hepatitis B virus
20S proteasome = 20S proteasome (Homo sapiens, UniProt P28074); conditions: in vitro; cited from earlier work
HIV-1NL4-3 [1] = experiment: Infectivity of released virions, end point titration (TCID50) on C8166 cells; assay type: cell-based; conditions: for Infectivity Titer/ng p24^CA / Virus titer/ml TCID50 / Infectivity % of “no zLLL”: 40 μM zLLL; for Infectivity % of “no zLLL”: control = 100; for reduction of infectious virions in the cell culture medium: 40 microM zLLL
Protocol: Cultures of human CD4^+ T cells, A3.01 were infected with HIV-1NL4-3 and cultured in RPMI for approx. 7 days. Approx. 80% of the cell culture medium was replaced every other day. The amount of released virus particles was determined by testing samples of the cell culture supernatants for activity of virus-associated RT. Furthermore, the spread of the infection was monitored by indirect immunofluorescence with anti-CA antibodies. The time of maximum spread of the infection in the culture was determined on the basis of RT accumulation and of syncytia formation. At the time of maximum virus production (approx. 7 days after infection), fresh noninfected A3.01 cells were mixed with the infected culture in a 1:1 ratio and incubated for another 24 h. This makes it possible to quasi-synchronize the infection and to maximize the number of infected cells with maximum HIV expression at a given time. The cells were divided into parallel cultures, washed with PBS and treated with 40 microM zLLL in medium for 4.5 hours. Washing of the cells and culturing in fresh medium was necessary in order to monitor the newly produced viruses during the harvest period of 4.5 hours (+zLLL “0 hr”). It was assumed that there is a certain lag phase of approx. 1 hour, corresponding to HIV-1 assembly, between the start of the treatment with proteasome inhibitors and the release of defective virions. In order to monitor the virus production of cells with inactivated proteasomes at the start of the harvest period, parallel cultures were pretreated with 40 microm zLLL prior to the washing step for one (+zLLL “−1 hr”) or 6 hours (+zLLL “−6 hr”). A parallel culture was incubated without inhibitor (no zLLL). The virus-containing cell culture supernatants were collected, filtered, and the amount of Gag proteins was quantified by means of a standardized capture ELISA using anti-CA antibodies with different epitopes. […] The infectivity of the culture supernatants was determined by means of end point titration (detailed in example 6d) and is indicated as TCID50 in Table 1. The specific infectivity was determined by dividing TCID50 by the total amount of Gag and is listed in Table 1 as percentage infectivity of the control culture (no zLLL=100%). Both the release of Gag proteins and the infectivity of the released virions are shown to be inhibited after zLLL treatment. This effect increases with time, and infectious virions in the cell culture medium are reduced by 84% after 4.5 hours and by 98% after another 6 hours of pretreatment (Table 1).
CD4^+ T cells (A3.01) were infected with HIV-1NL4-3, at the time of maximum virus production (approx. 7 days post infection), parallel cultures were treated either without or with 40 μM zLLL for 1 (+zLLL “−1 hr”) or 6 hours (+zLLL “−6 hr”). This was followed by washing the cells and another 4.5 hours of incubating with or without 40 μM zLLL. In a parallel culture, cells were treated with 40 μM zLLL immediately after washing (+zLLL “0 hr”). The virus-containing supernatants were collected, and the amount of CA antigen was quantified by means of ELISA. The specific infectivity was determined as the infectious virus titer per nanog of CA and depicted relative to the untreated control culture (100%).
Acute HIV-1NL4-3-infected A3.01 cells were treated with 40 microM zLLL for various times, as indicated in exemplary embodiment 1. Cell-free cell culture supernatant was harvested and filtered (pore size=0.45 microm). The relative quantity of released virions was quantified by means of a p24^CA-antigen capture ELISA. For the purpose of virus titration, in each case 8 parallel cultures of C8166 cells were infected with the particular viral preparations, in a serial 10-fold dilution. The infectivity titer was determined as 50% cell culture infectious dose (TCID50), namely by determining syncytia formation for each culture and dilution step on day 10 post infection. […]

HIV-1NL4-3 [2] = assay type: cell-based
HIV-1NL4-3 [3] = experiment: Virus release from HIV-1-infected A3.01 T cells, p24 CA capture ELISA; assay type: cell-based
Protocol: Cultures of human CD4^+ T cells, A3.01 were infected with HIV-1NL4-3 and cultured in RPMI for approx. 7 days. Approx. 80% of the cell culture medium was replaced every other day. The amount of released virus particles was determined by testing samples of the cell culture supernatants for activity of virus-associated RT. Furthermore, the spread of the infection was monitored by indirect immunofluorescence with anti-CA antibodies. The time of maximum spread of the infection in the culture was determined on the basis of RT accumulation and of syncytia formation. At the time of maximum virus production (approx. 7 days after infection), fresh noninfected A3.01 cells were mixed with the infected culture in a 1:1 ratio and incubated for another 24 h. This makes it possible to quasi-synchronize the infection and to maximize the number of infected cells with maximum HIV expression at a given time. The cells were divided into parallel cultures, washed with PBS and treated with 40 microM zLLL in medium for 4.5 hours. […] The virus-containing cell culture supernatants were collected, filtered, and the amount of Gag proteins was quantified by means of a standardized capture ELISA using anti-CA antibodies with different epitopes. […] The infectivity of the culture supernatants was determined by means of end point titration (detailed in example 6d) and is indicated as TCID50 in Table 1. The specific infectivity was determined by dividing TCID50 by the total amount of Gag and is listed in Table 1 as percentage infectivity of the control culture (no zLLL=100%). […]
CD4^+ T cells (A3.01) were infected with HIV-1NL4-3, at the time of maximum virus production (approx. 7 days post infection), parallel cultures were treated either without or with 40 μM zLLL for 1 (+zLLL “−1 hr”) or 6 hours (+zLLL “−6 hr”). […] The virus-containing supernatants were collected, and the amount of CA antigen was quantified by means of ELISA. The specific infectivity was determined as the infectious virus titer per nanog of CA and depicted relative to the untreated control culture (100%). […]

HIV-1NL4-3 [4] = experiment: HIV-1 replication in A3.01 cell culture, RT activity in supernatant; assay type: cell-based; conditions: for productive infection in the culture (RT accumulation): 5 microM, approx. 2 weeks

CC(=O)N[C@@H](CSC(=O)[C@]1([C@@H](O)C(C)C)NC(=O)[C@H](C)[C@@H]1O)C(=O)O [LC, lactacystin]
inhibition of protease activity (HIV-1 protease): not possible to detect any inhibition | inhibitory action on Gag processing by HIV-1 protease (HIV-1 protease): no inhibitory action whatsoever | concentration tolerated in cell culture (mouse thymus cell lines): up to 6 μM

C=C(C)C[C@H](NC(=O)[C@H](CO)NC(=O)CCCCC(C)C)C(=O)[C@@]1(CO)CO1 [eponemycin]
number of core-positive cells compared to untreated cultures (DHBV; 1 μM, day 3 to day 6 after infection): much lower number of core-positive cells | tolerability in HepG2 (HepG2): still tolerated well

CC[C@H](C)[C@H](NC(=O)[C@H]([C@@H](C)CC)N(C)C(C)=O)C(=O)N[C@H](C(=O)N[C@@H](CC(C)C)C(=O)[C@@]1(C)CO1)[C@@H](C)O [epoxomicin]
concentration from which toxic symptoms appeared (HepG2; human, 48 h): ≥ 100 nM

CC(C)c1nc(CN(C)C(=O)N[C@H](C(=O)N[C@@H](Cc2ccccc2)C[C@H](O)[C@H](Cc2ccccc2)NC(=O)OCc2cncs2)C(C)C)cs1 [ritonavir]
inhibition of chymotrypsin activity of the 20S proteasome (20S proteasome): can inhibit

CC(C)(C)NC(=O)[C@@H]1C[C@@H]2CCCC[C@@H]2CN1C[C@@H](O)[C@H](Cc1ccccc1)NC(=O)[C@H](CC(N)=O)NC(=O)c1ccc2ccccc2n1 [saquinavir]
in vitro processing of Pr55 (HIV-1 protease; control, FIG. 3 reaction 10): complete blockage

Cc1ccc(C(=O)Nc2ccc(S(=O)(=O)O)c3cc(S(=O)(=O)O)cc(S(=O)(=O)O)c23)cc1NC(=O)c1cccc(NC(=O)Nc2cccc(C(=O)Nc3cc(C(=O)Nc4ccc(S(=O)(=O)O)c5cc(S(=O)(=O)O)cc(S(=O)(=O)O)c45)ccc3C)c2)c1 [suramin]
number of the core-expressing cells (DHBV; 100 microg/ml, from three days after infection for three days): very greatly reduced | establishment of the primary infection (DHBV; pretreatment 100 microg/ml, 2 h pre-infection): completely blocks

CC(C)C[C@@H](C=O)NC(=O)[C@H](CC(C)C)NC(=O)[C@H](CC(C)C)NC(=O)OCc1ccccc1 [zLLL, N-carbobenzoxyl-L-leucinyl-L-leucinyl-L-leucinal] (Cbz-Leu-Leu-Leu-aldehyde)
inhibition of protease activity (HIV-1 protease): not possible to detect any inhibition | inhibitory action on Gag processing by HIV-1 protease (HIV-1 protease): no inhibitory action whatsoever | Infectivity Titer/ng p24^CA (HIV-1NL4-3 [1]; “0 hr”, 4.5 hours harvest): 1.0 × 10^4 Titer/ng p24^CA | Virus titer/ml TCID50 (HIV-1NL4-3 [1]; “0 hr”, 4.5 hours harvest): 1.2 × 10^6 TCID50/ml | Infectivity % of “no zLLL” (HIV-1NL4-3 [1]; “0 hr”, 4.5 hours harvest): 14% | Infectivity Titer/ng p24^CA (HIV-1NL4-3 [1]; “−1 hr” plus 4.5 hours harvest): 5.0 × 10^3 Titer/ng p24^CA | Virus titer/ml TCID50 (HIV-1NL4-3 [1]; “−1 hr” plus 4.5 hours harvest): 4.4 × 10^5 TCID50/ml | Infectivity % of “no zLLL” (HIV-1NL4-3 [1]; “−1 hr” plus 4.5 hours harvest): 7% | Infectivity Titer/ng p24^CA (HIV-1NL4-3 [1]; “−6 hr” plus 4.5 hours harvest): 1.5 × 10^3 Titer/ng p24^CA | Virus titer/ml TCID50 (HIV-1NL4-3 [1]; “−6 hr” plus 4.5 hours harvest): 3.8 × 10^4 TCID50/ml | Infectivity % of “no zLLL” (HIV-1NL4-3 [1]; “−6 hr” plus 4.5 hours harvest): 2% | reduction of infectious virions in the cell culture medium (HIV-1NL4-3 [1]; after 4.5 hours): 84% | reduction of infectious virions in the cell culture medium (HIV-1NL4-3 [1]; after another 6 hours of pretreatment): 98% | kinetics of intracellular Gag processing and of the release of virus-associated and free Gag (HIV-1NL4-3 [2]): distinct delay | Virus release ng p24^CA/ml (HIV-1NL4-3 [3]; 40 μM zLLL added immediately after washing (“0 hr”), 4.5 hours harvest, A3.01): 122 ng p24^CA/ml | Virus release ng p24^CA/ml (HIV-1NL4-3 [3]; 40 μM zLLL, 1 hour pretreatment (“−1 hr”) plus 4.5 hours harvest): 88 ng p24^CA/ml | Virus release ng p24^CA/ml (HIV-1NL4-3 [3]; 40 μM zLLL, 6 hours pretreatment (“−6 hr”) plus 4.5 hours harvest): 26 ng p24^CA/ml | effect on HIV-1 replication (HIV-1NL4-3 [4]; 1 microM): completely inhibits replication | productive infection in the culture (RT accumulation) (HIV-1NL4-3 [4]; FIG. 4 panel 1): no productive infection at all | productive infection in the culture (RT accumulation) (HIV-1NL4-3 [4]; FIG. 4 panel 2): only a very reduced productive infection | effect on HIV-1 replication (HIV-1NL4-3 [4]; 100 nanoM): relatively weak inhibitory effect
